Experimental data as given in US6967254B2, “Substituted heterocyclic compounds and methods of use” (Amgen Inc., priority 2002, dated 2005).
pIC50: −log10 of the molar value.

Each molecule was assayed on LPS induced TNF release, THP1 cells (assay: Lipopolysaccharide-Activated THP1 Cell TNF Production Assay (LPS induced TNF release)). Conditions: Homo sapiens, THP-1, bacterial LPS, 3 h at 37° C., secreted TNF-α read by ECL.
Format: cell-based
Method: Lipopolysaccharide-Activated THP1 Cell TNF Production Assay
THP1 cells are resuspended in fresh THP1 media (RPMI 1640, 10% heat-inactivated FBS, 1×PGS, 1×NEAA, plus 30 μM βME) at a concentration of 1E6/mL. One hundred microliters of cells per well are plated in a polystyrene 96-well tissue culture. One microgram per mL of bacterial LPS is prepared in THP1 media and is transferred to the wells. Test compounds are dissolved in 100% DMSO and are serially diluted 3 fold in a polypropylene 96-well microtiter plate (drug plate). HI control and LO control wells contain only DMSO. One microliter of test compound from the drug plate followed by 10 μL of LPS are transferred to the cell plate. The treated cells are induced to synthesize and secrete TNF-α at 37° C. for 3 h. Forty microliters of conditioned media are transferred to a 96-well polypropylene plate containing 110 μL of ECL buffer (50 mM Tris-HCl pH 8.0, 100 mM NaCl, 0.05% Tween 20, 0.05% NaN3 and 1% FBS) supplemented with 0.44 nM MAB610 monoclonal Ab (R&D Systems), 0.34 nM ruthenylated AF210NA polyclonal Ab (R&D Systems) and 44 μg/mL sheep anti-mouse M280 Dynabeads (Dynal). After a 2 h incubation at room temperature with shaking, the reaction is read on the ECL M8 Instrument (IGEN Inc.). A low voltage is applied to the ruthenylated TNF-α: immune complexes, which in the presence of TPA (the active component in Origlo), results in a cyclical redox reaction generating light at […]. The amount of secreted TNF-α in the presence of compound compared with that in the presence of DMSO vehicle alone (HI control) is calculated using the formula: % control (POC)=(cpd−average LO)/(average HI−average LO)*100. Data (consisting of POC and inhibitor concentration in AM) is fitted to a 4-parameter equation (y=A+((B−A)/(1+((x/C)^D))), where A is the minimum y (POC) value, B is the maximum y (POC), C is the x (cpd concentration) at the point of inflection and D is the slope factor) using a Levenburg-Marquardt non-linear regression algorithm.

Compound | pIC50
Cn1c(=O)c(-c2ccc(Cl)c(Cl)c2)c(-c2ccncc2)n1CC1CCCCC1 [Example 19, 1-Cyclohexylmethyl-4-(3,4-dichloro-phenyl)-2-methyl-5-pyridin-4-yl-1,2-dihydro-pyrazol-3-one] | ≥ 4.70
O=c1[nH][nH]c(-c2ccncc2)c1-c1ccc(Cl)c(Cl)c1 [Example 15, 4-(3,4-Dichloro-phenyl)-5-pyridin-4-yl-1,2-dihydro-pyrazol-3-one] | ≥ 4.70
NC1CCC(n2[nH]c(=O)c(-c3ccc(Cl)cc3)c2-c2ccncc2)CC1 (stereo not shown) [Example 20, 1-(4-Aminocyclohexyl)-4-(4-chlorophenyl)-5-pyridin-4-yl-1,2-dihydropyrazol-3-one] | ≥ 4.70
CC(C)N1CCC(n2[nH]c(=O)c(-c3ccc(Cl)cc3)c2-c2ccncc2)CC1 [Example 12, 4-(4-Chlorophenyl)-1-(1-isopropyl-piperidin-4-yl)-5-pyridin-4-yl-1,2-dihydro-pyrazol-3-one] | ≥ 4.70
CC(C)n1c(-c2ccncc2)c(-c2ccc(Cl)c(Cl)c2)c(=O)n1C [Example 17, 4-(3,4-Dichloro-phenyl)-1-isopropyl-2-methyl-5-pyridin-4-yl-1,2-dihydro-pyrazol-3-one] | ≥ 4.70
CN1CCC(n2[nH]c(=O)c(-c3ccc(Cl)cc3)c2-c2ccncc2)CC1 [Example 10, 4-(4-Chlorophenyl)-1-(1-methyl-piperidin-4-yl)-5-pyridin-4-yl-1,2-dihydro-pyrazol-3-one] | ≥ 4.70
O=c1[nH]n(C2CCCNC2)c(-c2ccncc2)c1-c1ccc(Cl)cc1 (stereo not shown) [Example 6, 4-(4-Chloro-phenyl)-1-piperidin-3-yl-5-pyridin-4-yl-1,2-dihydro-pyrazol-3-one] | ≥ 4.70
O=c1[nH]n(C2CCNCC2)c(-c2ccncc2)c1-c1ccc(Cl)cc1 [Example 5, 4-(4-Chloro-phenyl)-1-piperidin-4-yl-5-pyridin-4-yl-1,2-dihydro-pyrazol-3-one] | ≥ 4.70
CN1CCCC(n2[nH]c(=O)c(-c3ccc(Cl)cc3)c2-c2ccncc2)C1 (stereo not shown) [Example 11, 4-(4-Chlorophenyl)-1-(1-methyl-piperidin-3-yl)-5-pyridin-4-yl-1,2-dihydro-pyrazol-3-one] | ≥ 4.70
CC(C)n1[nH]c(=O)c(-c2ccc(Cl)c(Cl)c2)c1-c1ccncc1 [Example 16, 4-(3,4-Dichloro-phenyl)-1-isopropyl-5-pyridin-4-yl-1,2-dihydro-pyrazol-3-one] | ≥ 4.70
